Assay results reported in patent US20110039874A1, “MONOACYLGLYCEROL LIPASE INHIBITORS FOR MODULATION OF CANNABINOID ACTIVITY” (Northeastern University, priority 2007, published 2011).

Compound	melting point [°C]
O=S(=O)(F)CCCCCc1ccc(OCc2ccccc2)cc1 [Compound 13.4, 5-(4-Benzyloxy-phenyl)-pentanesulfonyl fluoride]	66 to 68
O=C(CCCCOc1ccc(O)cc1)C(F)(F)F [Compound 24.2, 1,1,1-Trifluoro-6-[4-(hydroxy)phenoxy]-2-hexanone]	63 to 64
O=C(CCCCOc1ccccc1)C(F)(F)F [Compound 23.12, 1,1,1-Trifluoro-6-phenoxy-2-hexanone]	50 to 51
O=C(CCCOc1ccccc1OCc1ccccc1)C(F)(F)F [Compound 23.8, 1,1,1-Trifluoro-5-[2-(Benzyloxy)phenoxy]-2-pentanone]	50 to 51
O=C(CCCCOc1ccc(OCc2ccccc2)cc1)C(F)(F)F [Compound 23.2, 1,1,1-Trifluoro-6-[4-(Benzyloxy)phenoxy]-2-hexanone]	95.5 to 96
O=S(=O)(F)CCCCOc1ccccc1 [Compound 17, 4-Phenoxybutylsulfonyl fluoride]	74 to 76
O=C(CCCCCCOc1ccc(OCc2ccccc2)cc1)C(F)(F)F [Compound 23.4, 1,1,1-Trifluoro-8-[4-(Benzyloxy)phenoxy]-2-octanone]	82 to 83
Cc1nnc(C(=O)CCCCCCOc2ccc(O)cc2)o1 [Compound 66, 7-(4-Hydroxy-phenoxy)-1-(5-methyl-1,3,4-oxadiazol-2-yl)-heptan-1-one]	134 to 135
O=C(CCCCCCOc1ccc(O)cc1)C(F)(F)F [Compound 24.4, 1,1,1-Trifluoro-8-[4-(hydroxy)phenoxy]-2-octanone]	61 to 62
O=C(CCCCCOc1ccc(OCc2ccccc2)cc1)C(F)(F)F [Compound 23.3, 1,1,1-Trifluoro-7-[4-(Benzyloxy)phenoxy]-2-heptanone]	59 to 60

Now from value to molecule:

melting point [°C]	Compound
51 to 52	O=C(CCCCOc1ccccc1O)C(F)(F)F [Compound 24.9, 1,1,1-Trifluoro-6-[2-(hydroxy)phenoxy]-2-hexanone]
59 to 61	O=C(CCCOc1ccc(OCc2ccccc2)cc1)C(F)(F)F [Compound 23.1, 1,1,1-Trifluoro-5-[4-(benzyloxy)phenoxy]-2-pentanone]
47 to 51	O=S(=O)(F)CCCCCCCc1ccc(O)cc1 [Compound 14.1, 7-(4-Hydroxy-phenyl)-heptanesulfonyl fluoride]
31 to 32	O=C(CCCCCOc1ccccc1OCc1ccccc1)C(F)(F)F [Compound 23.10, 1,1,1-Trifluoro-7-[2-(Benzyloxy)phenoxy]-2-heptanone]
118 to 120	Cc1nnc(C(=O)CCCCCCOc2ccc(OCc3ccccc3)cc2)o1 [Compound 65.2, 7-(4-Benzyloxy-phenoxy)-1-(5-methyl-1,3,4-oxadiazol-2-yl)-heptan-1-one]
76 to 77	Oc1cccc(OCCCC(O)(O)C(F)(F)F)c1 (hydrate or solvate) [Compound 24.5, 1,1,1-Trifluoro-2,2-dihydroxy-5-[3-(hydroxy)phenoxy]pentane]
57 to 59	COS(=O)(=O)CCCCCCCc1ccc(OCc2ccccc2)cc1 [Compound 18, 7-(4-Benzyloxy-phenyl)-heptane-1-sulfonic acid methyl ester]
35 to 38	O=S(=O)(F)CCCCCCCc1ccc(OCc2ccccc2)cc1 [Compound 13.1, 7-(4-Benzyloxy-phenyl)-heptanesulfonyl fluoride]
